Measured values from PubChem BioAssay AID328 (DTP/NCI, 2004).
Values joined by “and” are separate entries in the source; they are usually repeats but may differ in a detail not shown here. Equal values may be shown once. Toxic doses and inconclusive results are not listed. Rule for the calls: active = survival T/C of 150% or more; inactive = T/C below 125% in these data.

Tested on: BDF1 mice, P388 leukemia ip, median survival T/C
Test: NCI In Vivo Anticancer Drug Screen. Data for tumor model P388 Leukemia (intraperitoneal) in B6D2F1 (BDF1) mice
Settings: endpoint: median survival time, higher = longer survival
Summary of the method: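 Steps: implant the tumour, treat one group with compound and another with vehicle, record survival, then divide treated by control.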

[1] = dose: 50.0 mg/kg/injection, schedule: Q01DX009 (ip), vehicle: saline with Tween-80
[2] = dose: 50.0 mg/kg/injection, schedule: Q04DX003 (ip), vehicle: saline with Tween-80
[3] = dose: 100.0 mg/kg/injection, schedule: Q01DX009 (ip), vehicle: saline with Tween-80
[4] = dose: 100.0 mg/kg/injection, schedule: Q04DX003 (ip), vehicle: saline with Tween-80
[5] = dose: 200.0 mg/kg/injection, schedule: Q01DX009 (ip), vehicle: saline with Tween-80
[6] = dose: 200.0 mg/kg/injection, schedule: Q04DX003 (ip), vehicle: saline with Tween-80
[7] = dose: 400.0 mg/kg/injection, schedule: Q04DX003 (ip), vehicle: saline with Tween-80

Measured: T/C

Nc1c2ccccc2cc2ccccc12
inactive: [1] 108 % of control | [2] 108 % of control | [3] 108 % of control | [4] 95 % of control | [5] 113 % of control | [6] 91 % of control

CN(C)P(N)(=S)N(C)C
inactive: [1] 96 % of control | [3] 91 % of control | [5] 96 % of control

CC(C)n1cnc2c(Cl)ncnc21
inactive: [3] 100 % of control | [4] 104 % of control | [6] 95 % of control | [7] 90 % of control

N#CN=C([S-])[S-].N#CN=C([S-])[S-].[Cu]
inactive: dose: 0.39 mg/kg/injection, schedule: Q01DX001 (ip), vehicle: saline 104 % of control | dose: 0.78 mg/kg/injection, schedule: Q01DX001 (ip), vehicle: saline 100 % of control | dose: 1.56 mg/kg/injection, schedule: Q01DX001 (ip), vehicle: saline 100 % of control | dose: 6.25 mg/kg/injection, schedule: Q01DX009 (ip), vehicle: saline 100 % of control | dose: 6.25 mg/kg/injection, schedule: Q04DX003 (ip), vehicle: saline 86 % of control | dose: 12.5 mg/kg/injection, schedule: Q04DX003 (ip), vehicle: saline 100 % of control

Cc1ccc(N=Cc2ccccc2O)cc1Cl
inactive: dose: 100.0 mg/kg/injection, schedule: Q01DX001 (ip), vehicle: saline with Tween-80 109 % of control | dose: 200.0 mg/kg/injection, schedule: Q01DX001 (ip), vehicle: saline with Tween-80 100 % of control | dose: 400.0 mg/kg/injection, schedule: Q01DX001 (ip), vehicle: saline with Tween-80 100 % of control

CNC(=O)Oc1coc(CCl)cc1=O
inactive: dose: 12.0 mg/kg/injection, schedule: Q01DX009 (ip), vehicle: Klucel (hydroxypropylcellulose) (HPC) 95 % of control | dose: 16.5 mg/kg/injection, schedule: Q01DX009 (ip), vehicle: saline 108 % of control | dose: 18.0 mg/kg/injection, schedule: Q01DX009 (ip), vehicle: Klucel (hydroxypropylcellulose) (HPC) 86 % of control | dose: 25.0 mg/kg/injection, schedule: Q01DX009 (ip), vehicle: saline 120 % of control | dose: 27.0 mg/kg/injection, schedule: Q01DX009 (ip), vehicle: Klucel (hydroxypropylcellulose) (HPC) 100 % of control | dose: 37.5 mg/kg/injection, schedule: Q01DX009 (ip), vehicle: saline 116 % of control | dose: 40.0 mg/kg/injection, schedule: Q01DX009 (ip), vehicle: Klucel (hydroxypropylcellulose) (HPC) 118 % of control | dose: 60.0 mg/kg/injection, schedule: Q01DX009 (ip), vehicle: Klucel (hydroxypropylcellulose) (HPC) 118 % of control

[O-][n+]1ccc(Cl)c2ccsc21
inactive: [2] 95 % of control | [4] 95 % of control | [6] 90 % of control and 104 % of control | [7] 86 % of control

CCOc1ccc(/C=N/Nc2ccc([N+](=O)[O-])cc2)cc1OC
inactive: [3] 100 % of control | [5] 115 % of control | dose: 400.0 mg/kg/injection, schedule: Q01DX009 (ip), vehicle: saline with Tween-80 115 % of control

CC/C(=N/O)c1ccccc1
inactive: [4] 90 % of control | [6] 110 % of control | [7] 105 % of control

NNC(=O)C(=O)NCc1ccco1
inactive: [1] 98 % of control

C=CC(OC(C)=O)OC(C)=O
inactive: dose: 6.0 mg/kg/injection, schedule: Q01DX009 (ip), vehicle: saline with Tween-80 104 % of control | dose: 8.0 mg/kg/injection, schedule: Q01DX009 (ip), vehicle: saline with Tween-80 115 % of control | dose: 12.0 mg/kg/injection, schedule: Q01DX009 (ip), vehicle: saline with Tween-80 111 % of control | dose: 12.5 mg/kg/injection, schedule: Q04DX003 (ip), vehicle: saline with Tween-80 108 % of control | dose: 18.0 mg/kg/injection, schedule: Q01DX009 (ip), vehicle: saline with Tween-80 100 % of control | dose: 25.0 mg/kg/injection, schedule: Q04DX003 (ip), vehicle: saline with Tween-80 117 % of control

Cc1c(-c2ccc(C(=N)N)cc2)oc(-c2ccc(C(=N)N)cc2)c1C
inactive: dose: 3.13 mg/kg/injection, schedule: Q01DX009 (ip), vehicle: saline with Tween-80 109 % of control
